# Reference: patent US5650442A (priority 1994, dated 1997)
# Tests used:
# Female C3H mice = test: Protection of mice against melphalan toxicity; type: in vivo; settings: 70 mg/kg DEA/NO, i.p.
# Protocol: Female C3H mice were injected intraperitoneally with varying doses of melphalan alone or melphalan with 70 mg/kg DEA/NO. The methods employed were adaptations of the methods used in Examples 9 and 11.
# FIG. 16 is a graph of % survival of animals versus does of melphalan (mg/kg) showing the chemotherapy survival curves for mice exposed to melphalan in the absence or presence of DEA/NO. […] DEA/NO provided approximately a 1.2 protection factor at the 50% survival level.
# [1] = test system: human MCF7 breast cancer cells; test: Chemosensitization of human breast cancer cells to melphalan or thiotepa, clonogenic assay; settings: 1 hr, 37° C.; for DEA/NO enhancement ratio at the 10% surviving fraction level: 1 mM DEA/NO
# Protocol: FIG. 10 is a graph of surviving fraction versus concentration (μg/ml) of melphalan in the absence or presence of 1 mMDEA/NO or released DEA/NO showing the survival curves for human MCF7 breast cancer cells exposed to melphalan in the absence or presence of 1 mM DEA/NO or released DEA/NO.
# FIG. 11 is a graph of surviving fraction versus concentration (μg/ml) of thiotepa in the absence or presence of 1 mM DEA/NO or released DEA/NO showing the survival curves for human MCF7 breast cancer cells exposed to thiotepa in the absence or presence of 1 mM DEA/NO or released DEA/NO.
# (§1) Chinese hamster V79 lung fibroblasts were cultured in F12 medium supplemented with 10% fetal calf serum and antibiotics. […] The assay system was specifically designed to evaluate radiation sensitivity of cells exposed to radiation under both aerobic and hypoxic conditions (Mitchell et al., Radiat. Res., 96, 422-428 (1983); Russo et al., Radiat. Res., 103, 232-239 (1985); and DeGraff et al., Int. J. Radiat. Oncol. Biol. Phys., 16, 1021-1024 (1989)).
# Human breast cancer cells in log phase were exposed for 1 hr at 37° C. to varying concentrations of melphalan or thiotepa in the absence or presence of 1 mM DEA/NO or released DEA/NO. […] Cytotoxicity was evaluated using the clonogenic assay of Example 2.
# FIGS. 10 and 11 are graphs of surviving fraction versus concentration (μg/ml) of melphalan and thiotepa, respectively.
# C3H mice = test: Protection of mice from whole body irradiation; type: in vivo; settings: for Percent survival of mice at 30 days: 1100 cGy
# Source text: Female C3H mice were obtained from the Frederick Cancer Research Center--Animal Production in Frederick, Md. C3H mice have been used in whole body irradiation studies since 1948 (Patt, et al., Science, 110, 213-214 (1949)) and are considered to serve as good models for predicting the effects of radiation in humans.
# C3H mice were received at six weeks of age and were housed five per cage in climate-controlled, circadian rhythm-adjusted rooms and allowed food and water ad libitum. The animals were 60-80 days old at the time of radiation. A total of 10-15 mice were used per radiation dose. Mice were weighed in groups of five. The weights of each group ranged from 110 grams to 135 grams or an average weight of 22-27 grams per mouse.
# In all experiments drugs and diluent (in control mice) were injected intraperitoneally into mice in volumes equivalent to 1% of each animal's weight (0.22 to 0.27 ml). Groups of 5-10 mice were placed in round (30.5 cm diameter and 10.5 cm height) Plexiglas containers with holes for ventilation for irradiation. The irradiator was calibrated with thermoluminescent dosimetry chips planted in phantom mice, and the radiation dose was determined according to previously described methodology (Cameron et al., "Thermoluminescent Dosimetry" (Univ. of Wisconsin Press, Madison, Wis., 1968)). The dose rate used was 1 Gy/min. Total time of irradiation varied as a function of the dose delivered. Immediately after irradiation, the mice were separated into groups of five and returned to climate-controlled cages for observation. The mice were assessed daily for survival.
# The results are shown in FIG. 7, which is a graph of percent surviving versus days after irradiation with 11 Gy for control mice (.box-solid., n=10), which were injected with saline, mice treated with DEA/NO 10 minutes prior to irradiation (.largecircle., n=15), and mice treated with DEA/NO 30 minutes prior to irradiation (.circle-solid., n=15).
# [2] = test system: Chinese hamster V79 lung fibroblasts; test: Cytotoxicity of the agents alone to V79 cells, clonogenic assay; settings: no radiation
# Protocol: as §1
# (§2) When cultured cells were exposed to DEA/NO in subsequent examples, DEA/NO in F12 medium with 10 mM HEPES buffer, pH 7.0, was used. […] Control cells in subsequent examples were exposed to 0.02N NaOH, instead of DEA/NO.
# Radiation survival curves for V79 cells exposed to varying concentrations of DEA/NO and various DEA/NO decomposition products under hypoxic conditions (metabolic hypoxia induction) are shown in FIG. 1A, which is a graph of the surviving fraction versus dose (Gy). Lines in FIG. 1A represent control (.circle-solid.) and 0.1 mM (Δ), 0.5 mM (.largecircle.), 1.0 mM (.quadrature.), and 2.0 mM (.box-solid.) DEA/NO. Survival curves were corrected for drug cytotoxicity as appropriate.
# DEA/NO (2.0 mM) was allowed to decompose to liberate NO in medium maintained at 37° C. overnight in a flask open to the air for use as an additional control. The medium containing the DEA/NO decomposition products was then used to evaluate possible effects on radiosensitization.
# [3] = test system: Chinese hamster V79 fibroblasts; test: Chemosensitization of V79 cells to bioreductive agents (mitomycin C, SR 4233)
# [4] = test system: Chinese hamster V79 lung fibroblasts; test: Radiation survival of aerobic V79 cells, clonogenic assay; type: cell-based
# Protocol: as §1, §2
# Following irradiation, the various cell suspensions were pipetted, counted, diluted, and plated for macroscopic colony formation. Each dose determination was plated in triplicate and experiments were repeated a minimum of two times. Plates were incubated for seven days, after which colonies were fixed with methanol/acetic acid (3:1), stained with crystal violet, and counted. Colonies containing >50 cells were scored and graphed as FIGS. 1-3. Error bars in the graphs represent the standard deviation of the mean and are shown when larger than the symbol used to designate a data point. Survival curve data were fitted using a linear quadratic model of Albright (Radiat. Res., 112, 331-340 (1987)), and the survival curves shown in the figures represent the best fit curves for the experimental data points. Sensitizer enhancement ratios (SER) were calculated by dividing the radiation dose for control hypoxic conditions by the radiation dose for various agents under hypoxic conditions at the 1% surviving fraction level.
# [5] = test system: Chinese hamster V79 lung fibroblasts; test: Radiation survival of hypoxic V79 cells (metabolism-mediated oxygen depletion), clonogenic assay, SER; type: cell-based; settings: 0.05 mM, 1% surviving fraction level
smiles,measurement,setting,value
CCN(CC)/[N+]([O-])=N/[O-].[Na+] [DEA/NO],protection against the effects of melphalan,Female C3H mice,protected the mice against the effects of melphalan
same,protection factor at the 50% survival level,Female C3H mice; varying melphalan doses,~1.2
same,enhancement of chemosensitivity / cytotoxicity,"[1]; melphalan and thiotepa, 1 mM",significantly enhanced the chemosensitivity of human breast cancer cells to melphalan and thiotepa
same,DEA/NO enhancement ratio at the 10% surviving fraction level,[1]; melphalan,3.3
same,DEA/NO enhancement ratio at the 10% surviving fraction level,[1]; thiotepa,1.3
same,protection from whole body irradiation,C3H mice; 80 mg/kg i.p. before irradiation,protected mice from whole-body irradiation
same,Percent survival of mice at 30 days,C3H mice; 80 mg/kg i.p. 10 min before,44%
same,Percent survival of mice at 30 days,C3H mice; 80 mg/kg i.p. 30 min before,60%
same,cytotoxicity of treatment alone,[2]; 2 mM,minimal cytotoxicity
same,cytotoxicity of treatment alone,[2]; 0.1-1.0 mM,not cytotoxic
same,enhancement of hypoxic cytotoxicity of SR 4233,"[3]; 25 μm SR 4233, 1 mM, hypoxic, 1 hr",enhance the hypoxic cytotoxicity of SR 4233
same,enhancement of mitomycin C cytotoxicity,[3]; aerobic and hypoxic conditions,enhanced cytotoxicity under both aerobic and hypoxic conditions
same,enhancement of aerobic radiosensitivity at the 1% survival level,[4]; 2.0 mM,1.3
same,effect on aerobic radiosensitivity,[4]; 0.5 and 1.0 mM,had no effect on aerobic radiosensitivity
same,SER,[5],1.0
